Test results reported in patent US11351178B2, “Selective HDAC6 inhibitors” (ITALFARMACO S.P.A., priority 2017, dated 2022).

What was measured:
HDAC10 = molecular target: T1, HDAC10 (Homo sapiens, UniProt Q969S8); experiment: Enzymatic test HDAC10; type: biochemical; conditions: Table 3
T1 construct: purchased BPS 50010
T1 sequence (Q969S8 1-669): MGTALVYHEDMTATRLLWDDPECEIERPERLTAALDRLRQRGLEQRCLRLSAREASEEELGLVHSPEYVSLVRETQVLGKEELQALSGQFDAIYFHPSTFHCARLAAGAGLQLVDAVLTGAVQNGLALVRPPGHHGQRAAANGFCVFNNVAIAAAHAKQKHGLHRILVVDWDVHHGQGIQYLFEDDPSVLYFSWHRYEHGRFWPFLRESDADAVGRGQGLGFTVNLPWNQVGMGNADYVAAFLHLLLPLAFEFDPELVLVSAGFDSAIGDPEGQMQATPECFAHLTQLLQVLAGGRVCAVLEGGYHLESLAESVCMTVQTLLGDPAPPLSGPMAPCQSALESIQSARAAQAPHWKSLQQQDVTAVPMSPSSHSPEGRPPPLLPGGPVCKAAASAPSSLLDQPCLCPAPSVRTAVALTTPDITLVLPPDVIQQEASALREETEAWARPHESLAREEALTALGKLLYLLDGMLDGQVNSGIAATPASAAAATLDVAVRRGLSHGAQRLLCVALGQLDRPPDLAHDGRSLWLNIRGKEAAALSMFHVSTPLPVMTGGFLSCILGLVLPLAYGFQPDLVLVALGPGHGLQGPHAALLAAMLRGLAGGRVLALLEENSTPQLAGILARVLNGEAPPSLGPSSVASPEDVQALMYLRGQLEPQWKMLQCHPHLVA

HDAC11 = molecular target: T2, HDAC11 (Homo sapiens, UniProt Q96DB2); experiment: Enzymatic test HDAC11; type: biochemical; conditions: Table 3
T2 construct: purchased BML SE560
T2 sequence (Q96DB2 1-347): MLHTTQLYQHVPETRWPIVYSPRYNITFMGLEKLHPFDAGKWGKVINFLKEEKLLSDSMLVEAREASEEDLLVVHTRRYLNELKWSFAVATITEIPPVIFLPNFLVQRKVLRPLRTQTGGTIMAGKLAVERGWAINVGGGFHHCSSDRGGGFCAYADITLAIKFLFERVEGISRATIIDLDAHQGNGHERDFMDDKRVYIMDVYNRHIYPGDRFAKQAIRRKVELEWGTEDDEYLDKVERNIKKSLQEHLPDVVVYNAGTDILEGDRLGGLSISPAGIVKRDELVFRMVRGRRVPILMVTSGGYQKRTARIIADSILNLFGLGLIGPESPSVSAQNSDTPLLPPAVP
Protocol: (§1) After a period of incubation at 30° C. (incubation times vary for different isoforms and are shown in table 1) 25 μL of solution containing the substrate were added. As substrate, FLUOR DE LYS® deacetylase substrate (Enzo Life Sciences, cat #BML-K1104, FdL), FLUOR DE LYS®-Green substrate (Enzo Life Sciences, cat #BML-K1572 FdL_G) and trifluoroacetyl-L-lysine (Tfal)-2× concentrated solution in 25 mM Tris-HCl, pH 8, 130 mM NaCl 0.05% Tween-20 10% glycerol) were used. Following a reaction period at 30° C.

HDAC7 = molecular target: T3, HDAC7 (Homo sapiens, UniProt Q8WUI4); experiment: Enzymatic test HDAC7; type: biochemical; conditions: Table 3
T3 construct: purchased BPS 50007
T3 sequence (Q8WUI4 518-952 limits assumed): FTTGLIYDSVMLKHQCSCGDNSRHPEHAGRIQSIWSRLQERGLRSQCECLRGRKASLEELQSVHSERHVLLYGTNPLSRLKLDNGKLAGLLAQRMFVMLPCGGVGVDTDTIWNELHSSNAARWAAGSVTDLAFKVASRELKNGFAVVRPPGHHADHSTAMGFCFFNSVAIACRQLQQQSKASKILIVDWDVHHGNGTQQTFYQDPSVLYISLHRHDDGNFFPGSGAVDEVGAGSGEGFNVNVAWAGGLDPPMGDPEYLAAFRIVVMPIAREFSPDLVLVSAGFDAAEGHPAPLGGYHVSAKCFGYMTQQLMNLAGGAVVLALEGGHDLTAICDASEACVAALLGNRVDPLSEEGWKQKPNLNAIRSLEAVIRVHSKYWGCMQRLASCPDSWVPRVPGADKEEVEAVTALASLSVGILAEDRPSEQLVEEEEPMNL
Protocol: as §1

[1] = system: peripheral blood mononuclear cells (PBMCs); experiment: Cytotoxicity on PBMCs (CellTiter 96); type: cell-based; conditions: PBMC, 72 h; read-out: PBMC TOXICITY (72 h)
Method in brief: (§2)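 Mitochondrial-function readout (CellTiter 96 Aqueous One) after 72 h compound exposure, begun 24 h post-seeding. Dose ranges: 697 cells, 1 to 10000 nM at 2×10^4 cells/well; PBMCs, 1.5 to 10000 nM at 5×10^5 cells/well.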

[2] = Stability in human plasma; type: in vitro ADME; conditions: after 4 hours, 37° C.
Method in brief: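 Compounds incubated at 37° C in rat or human plasma at 50 μM (UV/HPLC) or 1 or 2 μM (LC-MS/MS) for 0–4 h. Reaction stopped with acidified acetonitrile on ice; percent remaining versus initial amount and plasma half-life calculated.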

recombinant human HDAC3 = molecular target: T4, recombinant human HDAC3 (Homo sapiens, UniProt O15379); experiment: Enzymatic screening on recombinant human HDAC3; type: biochemical; conditions: Table 3
T4 construct: purchased BPS 50003
T4 sequence (O15379 whole entry): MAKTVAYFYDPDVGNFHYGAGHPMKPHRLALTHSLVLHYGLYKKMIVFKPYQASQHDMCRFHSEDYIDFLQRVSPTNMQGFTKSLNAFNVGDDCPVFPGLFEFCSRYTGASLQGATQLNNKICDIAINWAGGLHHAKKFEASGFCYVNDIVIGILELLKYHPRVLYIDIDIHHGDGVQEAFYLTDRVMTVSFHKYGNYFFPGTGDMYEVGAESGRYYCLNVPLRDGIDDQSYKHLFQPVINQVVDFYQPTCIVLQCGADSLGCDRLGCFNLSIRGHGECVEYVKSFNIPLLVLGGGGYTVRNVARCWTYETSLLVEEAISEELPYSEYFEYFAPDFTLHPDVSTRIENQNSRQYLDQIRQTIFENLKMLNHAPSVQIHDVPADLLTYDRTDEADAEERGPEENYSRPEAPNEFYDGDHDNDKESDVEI
T4 sequence (Q9Y618 395-489 partner limits assumed): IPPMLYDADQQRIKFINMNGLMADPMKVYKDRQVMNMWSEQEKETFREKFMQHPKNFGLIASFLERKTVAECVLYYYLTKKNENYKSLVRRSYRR
Protocol: Enzymatic activity on recombinant human HDAC6 and HDAC3 was evaluated (Table 2) for each synthesized compound.
as §1

[3] = system: B 697 promyelocytic cell line; experiment: Cytotoxicity on 697 cell line (CellTiter 96); type: cell-based; conditions: 72 hours incubation, read-out: 697 TOXICITY
Method in brief: as §2

HDAC5 = molecular target: T5, HDAC5 (Homo sapiens, UniProt Q9UQL6); experiment: Enzymatic test HDAC5; type: biochemical; conditions: Table 3
T5 construct: purchased BPS 50005
T5 sequence (Q9UQL6 656-1122 limits assumed): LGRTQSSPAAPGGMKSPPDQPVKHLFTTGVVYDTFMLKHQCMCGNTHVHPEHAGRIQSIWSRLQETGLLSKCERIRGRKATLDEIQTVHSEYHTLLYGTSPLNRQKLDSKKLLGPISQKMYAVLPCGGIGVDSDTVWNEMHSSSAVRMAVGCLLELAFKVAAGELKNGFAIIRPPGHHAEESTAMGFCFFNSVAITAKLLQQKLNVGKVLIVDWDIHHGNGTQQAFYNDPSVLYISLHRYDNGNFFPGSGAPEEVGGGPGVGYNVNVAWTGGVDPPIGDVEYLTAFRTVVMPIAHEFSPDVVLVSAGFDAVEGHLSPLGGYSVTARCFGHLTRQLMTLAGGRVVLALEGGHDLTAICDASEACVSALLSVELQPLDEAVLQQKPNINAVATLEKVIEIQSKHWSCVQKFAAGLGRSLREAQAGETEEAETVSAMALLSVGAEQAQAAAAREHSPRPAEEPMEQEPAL
Protocol: as §1

HDAC2 = molecular target: T6, HDAC2 (Homo sapiens, UniProt Q92769); experiment: Enzymatic test HDAC2; type: biochemical; conditions: Table 3
T6 construct: purchased BPS 50002
T6 sequence (Q92769 whole entry): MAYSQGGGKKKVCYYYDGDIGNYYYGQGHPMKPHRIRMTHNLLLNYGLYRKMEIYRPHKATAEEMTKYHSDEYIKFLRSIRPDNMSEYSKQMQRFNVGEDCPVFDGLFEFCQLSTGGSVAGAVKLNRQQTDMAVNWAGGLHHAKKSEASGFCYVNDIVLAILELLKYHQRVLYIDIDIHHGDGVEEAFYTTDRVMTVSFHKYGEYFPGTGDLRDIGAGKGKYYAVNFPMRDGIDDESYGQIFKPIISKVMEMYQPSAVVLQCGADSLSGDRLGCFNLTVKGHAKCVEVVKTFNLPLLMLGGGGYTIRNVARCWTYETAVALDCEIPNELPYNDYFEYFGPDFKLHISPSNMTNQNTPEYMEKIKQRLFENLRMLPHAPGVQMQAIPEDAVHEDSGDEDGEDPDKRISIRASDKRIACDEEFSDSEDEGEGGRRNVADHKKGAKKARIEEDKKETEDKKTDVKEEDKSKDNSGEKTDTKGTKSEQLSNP

| Structure (SMILES) | IC50 (HDAC10) [µM] | IC50 (HDAC11) [µM] | IC50 (HDAC7) [µM] | IC50 (recombinant human HDAC3) [µM] | IC50 (HDAC5) [µM] | IC50 (HDAC2) [µM] | IC50 [1] [µM] | residual percentage in human plasma [2] [%] | IC50 [3] [µM] |
| --- | --- | --- | --- | --- | --- | --- | --- | --- | --- |
| COc1ccc(C(=O)N[C@@H](Cc2cscn2)c2nc(Cc3ccc(C(=O)NO)cc3)no2)cc1OC [comp. 1, (S)—N-(1-(3-(4-(hydroxycarbamoyl)benzyl)-1,2,4-oxadiazol-5-yl)-2-(thiazol-4-yl)ethyl)-3,4-dimethoxybenzamide] | 2.48 | 2.68 | 3.53 | 2.87 | 12 | 6.66 | 7 | 102 | 10.4 |
| O=C(NO)c1cc(F)c(Cn2nnc(-c3ccccn3)n2)c(F)c1 [comp. 6, 3,5-difluoro-N-hydroxy-4-((5-(pyridin-2-yl)-2H-tetrazol-2-yl)methyl)benzamide] | 10.9 | 5.17 | 0.75 | 7.26 | 1.05 | 27.5 | 20 | 96 | > 10 |
| Cn1c(Sc2ccc(C(=O)NO)cc2)nnc1-c1cccs1 [comp. 10, N-hydroxy-4-((4-methyl-5-(thiophen-2-yl)-4H-1,2,4-triazol-3-yl)thio)benzamide] | 2.82 | 0.981 | 0.817 | 0.487 | 2.68 | 4.45 | 4.5 | 99 | 4.33 |
| Cn1c(Sc2c(F)cc(C(=O)NO)cc2F)nnc1-c1cccs1 [comp. 17, 3,5-difluoro-N-hydroxy-4-((4-methyl-5-(thiophen-2-yl)-4H-1,2,4-triazol-3-yl)thio)benzamide] | 6.86 | 2.29 | 0.55 | 2.83 | 1.54 | 16 | 9 | 98 | 5.2 |
| O=C(NO)c1cc(F)c(Cn2nnc(-c3ccco3)n2)c(F)c1 [comp. 19, 3,5-difluoro-4-((5-(furan-2-yl)-2H-tetrazol-2-yl)methyl)-N-hydroxybenzamide] | 2.7 | 0.798 | 1.02 | 2.64 | 0.597 | 9.48 | > 10 | 100 | 1.16 |
| CN(C)c1cccc(-c2nnc(Sc3ccc(C(=O)NO)cc3)n2C)c1 [comp. 77, 4-[[5-[3-(dimethylamino)phenyl]-4-methyl-1,2,4-triazol-3-yl]sulfanyl]benzenecarbohydroxamic acid] | 2.81 | 1.44 | 1.36 | 1.15 | 4.47 | 5.23 | 2 | – | 11.1 |
| Cc1cc(-c2nnc(Sc3ccc(C(=O)NO)cc3)n2C)nn1C [comp. 85, 4-[[5-(1,5-dimethylpyrazol-3-yl)-4-methyl-1,2,4-triazol-3-yl]sulfanyl]benzenecarbohydroxamic acid] | 0.954 | 0.557 | 0.514 | 0.339 | 0.559 | 1.7 | 2 | – | 1.16 |
| Cn1c(Sc2c(F)cc(C(=O)NO)cc2F)nnc1C(c1ccccc1)c1ccccc1 [comp. 98, 4-[(5-benzhydryl-4-methyl-1,2,4-triazol-3-yl)sulfanyl]-3,5-difluoro-benzenecarbohydroxamic acid] | 1.48 | 2.09 | 1.99 | 8.93 | 2.66 | 4.24 | – | – | – |

Further lines, with some results ahead:

| IC50 (HDAC10) [µM] | IC50 (HDAC11) [µM] | IC50 (HDAC7) [µM] | IC50 (recombinant human HDAC3) [µM] | IC50 (HDAC5) [µM] | IC50 (HDAC2) [µM] | Structure (SMILES) | IC50 [1] [µM] | residual percentage in human plasma [2] [%] | IC50 [3] [µM] |
| --- | --- | --- | --- | --- | --- | --- | --- | --- | --- |
| 14.1 | 8.05 | 1.09 | 8.65 | 1.85 | > 30 | Cn1c(Sc2c(F)cc(C(=O)NO)cc2F)nnc1-c1cccc2ccccc12 [comp. 2, 3,5-difluoro-N-hydroxy-4-((4-methyl-5-(naphthalen-1-yl)-4H-1,2,4-triazol-3-yl)thio)benzamide] | > 1 | 71 | 6.08 |
| 2.68 | 1.47 | 0.623 | 2.49 | 0.512 | 11.4 | O=C(NO)c1cc(F)c(Cn2nnnc2-c2ccccn2)c(F)c1 [comp. 13, 3,5-difluoro-N-hydroxy-4-((5-(pyridin-2-yl)-1H-tetrazol-1-yl)methyl)benzamide] | – | 94 | – |
| 1.91 | 0.659 | 1.31 | 1.65 | 0.687 | 6.75 | O=C(NO)c1cc(F)c(Cn2nnc(-c3scc4c3OCCO4)n2)c(F)c1 [comp. 79, 4-[[5-(2,3-dihydrothieno[3,4-b][1,4]dioxin-5-yl)tetrazol-2-yl]methyl]-3,5-difluoro-benzenecarbohydroxamic acid] | 3 | – | 22.2 |
| 5.58 | 2.82 | 0.764 | 1.87 | 1.28 | 13.8 | CN(C)c1cccc(-c2nnc(Sc3c(F)cc(C(=O)NO)cc3F)n2C)c1 [comp. 80, 4-[[5-[3-(dimethylamino)phenyl]-4-methyl-1,2,4-triazol-3-yl]sulfanyl]-3,5-difluoro-benzenecarbohydroxamic acid] | – | – | – |
